# Measured values from ChEMBL document CHEMBL1201862, “PubChem BioAssay data set” (2004).
# Calls of active or inactive are those of the source. Rule as the data show it, for most assays here: actives have a measured EC50 and inactives only a lower limit.
# Experiments:
# Streptococcus = assay: GAS UMAA2166 growth inhibition – luminescence, BacTiterGlo, counter-screen for streptokinase expression inhibitor project, dose response (AID 1915); format: functional, organism-based;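 also: potency for reduction of bacterial viability or growth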
# [1] = tested on: Streptococcus sp. 'group A'; assay: Streptococcus pyogenes SK(-)GAS viability under kanamycin – luminescence, BacTiterGlo, confirmation, counter-screen for streptokinase expression inhibitor project, dose response (AID 1900); format: functional, organism-based
# Streptokinase A = target: T1, Streptokinase A (Streptococcus pyogenes serotype M1, UniProt P10520); assay: viability-normalized secreted streptokinase activity reduction – plasminogen activation absorbance, OD405, dose response (AID 1914); format: functional, Streptococcus pyogenes M1 GAS;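 also: secreted streptokinase activity via plasminogen activation per viability signal from cell pellet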
# T1 sequence (P10520 whole entry): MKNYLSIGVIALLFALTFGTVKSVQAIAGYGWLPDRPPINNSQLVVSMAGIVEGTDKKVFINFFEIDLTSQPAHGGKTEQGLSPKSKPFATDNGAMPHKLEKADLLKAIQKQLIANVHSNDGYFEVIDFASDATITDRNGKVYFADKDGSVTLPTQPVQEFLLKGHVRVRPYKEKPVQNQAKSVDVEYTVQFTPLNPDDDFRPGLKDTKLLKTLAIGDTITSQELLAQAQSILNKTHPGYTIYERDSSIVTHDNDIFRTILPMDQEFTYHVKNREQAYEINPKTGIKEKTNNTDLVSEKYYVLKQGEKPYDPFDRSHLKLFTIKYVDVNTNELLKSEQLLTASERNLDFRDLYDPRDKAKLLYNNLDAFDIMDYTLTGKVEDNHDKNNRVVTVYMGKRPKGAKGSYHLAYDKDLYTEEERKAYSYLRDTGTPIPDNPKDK
# [2] = Trypanosoma cruzi growth suppression in host cells – NIH3T3 host cells, beta-gal luminescence, confirmation (AID 2044); format: functional, cell-based;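 also: intracellular parasites grown in NIH/3T3 mouse fibroblasts as host cells; luminescent beta-galactosidase reporter signal from transgenic T. cruzi replicating inside host cells; inhibitors lower the luminescence signal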
# [3] = Luminescence Cell-Based Dose Retest to Confirm Inhibitors of Cancer Stem Cells. [Related pubchem assays (depositor defined):AID2717, AID2721]; format: functional; settings: Homo sapiens
# [4] = NIH3T3 cell viability loss – ATP luminescence, mouse fibroblasts, counter-screen, dose response (AID 2010); format: functional, cell-based;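 also: cells exposed to compound for about 90 hours before reading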
# [5] = target: T2, Heat shock factor protein 1 (Mus musculus, UniProt P38532); assay: decrease of HSF1-responsive luciferase luminescence – cell-based, NIH3T3, dose retest, confirmation (AID 2382); format: functional;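 also: NIH3T3 fibroblasts with HSF1-driven luciferase reporter stressed by proteasome inhibitor MG132; luminescence from HSF1-driven luciferase expression after 8 hours of MG132 stress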
# T2 sequence (P38532 whole entry): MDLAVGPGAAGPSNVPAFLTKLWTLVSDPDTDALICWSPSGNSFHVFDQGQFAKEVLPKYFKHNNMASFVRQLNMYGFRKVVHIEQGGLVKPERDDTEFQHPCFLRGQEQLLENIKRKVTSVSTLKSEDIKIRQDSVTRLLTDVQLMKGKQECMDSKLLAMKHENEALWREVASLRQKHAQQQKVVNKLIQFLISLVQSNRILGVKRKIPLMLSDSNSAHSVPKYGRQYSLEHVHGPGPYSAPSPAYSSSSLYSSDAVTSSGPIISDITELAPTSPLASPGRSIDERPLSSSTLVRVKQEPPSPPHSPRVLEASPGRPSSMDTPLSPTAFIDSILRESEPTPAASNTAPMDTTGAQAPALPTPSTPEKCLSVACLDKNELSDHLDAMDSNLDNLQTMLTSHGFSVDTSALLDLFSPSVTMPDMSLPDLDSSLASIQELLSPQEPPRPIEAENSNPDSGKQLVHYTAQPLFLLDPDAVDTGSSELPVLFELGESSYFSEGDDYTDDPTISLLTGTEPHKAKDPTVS
# [6] = viability of uninfected HEp-2 cells – cell-based, HTS, cytotoxicity control for RSV inhibitor project, dose response (AID 2410); format: functional; settings: human respiratory syncytial virus
# [7] = target: T2, Heat shock factor protein 1; assay: enhancement of HSF1-driven luciferase signal – cell-based, NIH3T3, luminescence, dose retest, confirmation (AID 435004); format: functional;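 also: stress induced by proteasome inhibitor MG132 added 30 min after compound; luciferase reporter driven by HSF1 response element in NIH3T3 cells; actives raise luminescence as potentiators of the MG132 stress response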
# Cytochrome P450 1A2 = target: T3, Cytochrome P450 1A2 (Homo sapiens, UniProt P05177);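 also: PubChem cytochrome P450 panel assay, CYP1A2 panel member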
# T3 sequence (P05177 whole entry): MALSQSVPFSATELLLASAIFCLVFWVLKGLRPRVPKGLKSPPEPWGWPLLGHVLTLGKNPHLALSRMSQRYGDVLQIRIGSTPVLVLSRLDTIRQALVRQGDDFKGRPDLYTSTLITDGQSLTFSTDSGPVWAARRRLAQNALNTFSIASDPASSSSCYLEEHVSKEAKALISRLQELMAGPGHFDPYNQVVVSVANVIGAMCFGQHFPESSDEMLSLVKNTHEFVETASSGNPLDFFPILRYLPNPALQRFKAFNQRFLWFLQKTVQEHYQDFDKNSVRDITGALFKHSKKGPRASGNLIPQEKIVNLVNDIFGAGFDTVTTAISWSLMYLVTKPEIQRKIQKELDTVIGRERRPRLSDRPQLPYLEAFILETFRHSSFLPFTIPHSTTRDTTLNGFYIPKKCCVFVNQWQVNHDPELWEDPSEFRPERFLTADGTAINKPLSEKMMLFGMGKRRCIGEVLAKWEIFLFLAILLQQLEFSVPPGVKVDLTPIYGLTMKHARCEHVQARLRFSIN
smiles,measurement,setting,value
Cc1ccc(Oc2ccc3c(c2)C(=O)N(c2cccc4cccnc24)C3=O)cc1,EC50,Streptococcus,> 150 µM (not active)
same,EC50,[1],25.6 µM (active)
same,EC50,Streptokinase A,25.3 µM (active)
O=C(Nc1ccc(C(=O)NCc2ccc(F)cc2)cc1)C1=CSCCO1,EC50,Streptococcus,> 150 µM (not active)
same,EC50,[1],> 150 µM (not active)
same,EC50,Streptokinase A,> 150 µM (not active)
Cc1cc(C)c(OCC(=O)N2CCN(c3ncc(C(F)(F)F)cc3Cl)CC2)c(C)c1,EC50,Streptococcus,23.8 µM (active)
same,EC50,[1],12.8 µM (active)
same,EC50,Streptokinase A,7.69 µM (active)
CC(C)(C)NC(=O)C1CC2CCCCC2CN1 (stereo not given),EC50,Streptococcus,> 150 µM (not active)
same,EC50,[1],> 150 µM (not active)
same,EC50,Streptokinase A,> 150 µM (not active)
CCN(CC)CCSc1nnc2c3ccccc3n(Cc3ccccc3)c2n1,EC50,[2],0.284 µM (active)
same,AC50,[3],0.829 µM (active)
same,EC50,[4],> 60 µM (not active)
Nc1nc(CSC(=S)N2CCCCC2)nc(Nc2ccccc2)n1,EC50,[5],> 195 µM (not active)
CSc1cccc(NS(=O)(=O)c2cc(Br)cnc2N)c1,EC50,[5],> 195 µM (not active)
O=C(Nc1nc2ccccc2n1CCOc1ccccc1)c1ccco1,EC50,Streptococcus,9.64 µM (active)
same,EC50,[1],4.16 µM (active)
same,EC50,Streptokinase A,> 150 µM (not active)
N#Cc1ccc(C(=O)Nc2nc(SCc3ccc(Cl)cc3)n[nH]2)cc1,EC50,Streptococcus,> 150 µM (not active)
same,EC50,[1],1.97 µM (active)
same,EC50,Streptokinase A,> 150 µM (not active)
O=C(CN1CCCC1)Nc1c2c(cc3c1CCC3)CCC2,EC50,[5],> 195 µM (not active)
CC1(C)Cc2ccccc2-c2nnc(S)n21,CC50,[6],31.5 µM (active)
O=[N+]([O-])c1cc(C(F)(F)F)ccc1NCCc1c[nH]c2ccccc12,AC50,[3],4.48 µM (active)
COc1ccccc1NC(=O)CSc1nc2nnc(C)c-2c(N)n1-c1ccccc1Cl,CC50,[6],16.8 µM (active)
CCS(=O)(=O)N1Cc2ccccc2CC1C(=O)Nc1nnc(SCc2ccc(C#N)cc2)s1 (stereo not given),EC50,Streptococcus,94.3 µM (active)
same,EC50,[1],16.1 µM (active)
same,EC50,Streptokinase A,> 150 µM (not active)
Cc1ccc(C2=Nc3ccccc3NC(C)(c3ccc(C)o3)C2)o1 (stereo not given),EC50,[7],> 260 µM (inactive)
Cc1ccc(-c2nc(-c3cccnc3)sc2CC(=O)Nc2ccc3nc(C)sc3c2)cc1,EC50,[5],> 195 µM (not active)
Cc1ccccc1C(=O)NC[C@@H]1CCCN2CCCC[C@H]12,EC50,[5],18.6 µM (active)
C=CCNc1cc(C)oc(=O)c1C(=O)CCC,EC50,[5],> 195 µM (not active)
COc1cccc(-c2cc3nc4c(c(N5CCC6(CC5)OCCO6)n3n2)CCCC4)c1,AC50,[3],4.89 µM (active)
CC(C)Nc1nc(Oc2cccc(Cl)c2Cl)cc(C(F)(F)F)n1,EC50,Streptococcus,8.83 µM (active)
same,EC50,[1],6.13 µM (active)
same,EC50,Streptokinase A,> 150 µM (not active)
O=C(NCC1(N2CCCCC2)CCCCC1)c1cccc(NS(=O)(=O)c2ccccc2)c1,EC50,Streptococcus,> 150 µM (not active)
same,EC50,[1],> 150 µM (not active)
same,EC50,Streptokinase A,> 150 µM (not active)
CCOC(=O)C1=CN(Cc2ccc(OC)cc2)C=C(C(=O)OCC)C1c1cccs1,EC50,[7],> 260 µM (inactive)
CCN1C(=O)C(CC(=O)Nc2ccc(OC)cc2)N(CCCN2CCN(c3ccc(F)cc3)CC2)C1=S (stereo not given),AC50,[3],5.53 µM (active)
CC1CCCCN1c1nc(-c2ccncc2)nc2ccccc12 (stereo not given),EC50,[2],0.576 µM (active)
same,CC50,[6],44.4 µM (active)
same,EC50,[4],> 30 µM (not active)
N#Cc1cn(CCOc2ccc(F)cc2)c2ccccc12,CC50,[6],14.1 µM (active)
COC1CCCN(C(=O)c2ccc(OC3CCN(CCc4ccccc4)CC3)cc2)C1 (stereo not given),EC50,[5],> 195 µM (not active)
CCC(C)c1ccc(OCc2ccc(C(=O)O)o2)cc1 (stereo not given),EC50,[5],18.7 µM (inconclusive)
Nc1ccc(S(=O)(=O)N2CCC(Cc3ccccc3)CC2)cc1,EC50,[5],> 195 µM (not active)
COc1cccc(N=Nc2c(N)nn3c(O)cc(-c4ccccc4)nc23)c1,EC50,Streptococcus,31.3 µM (active)
same,EC50,[1],2.27 µM (active)
same,EC50,Streptokinase A,> 150 µM (not active)
CC1CCN(CC(=O)c2cccs2)CC1,EC50,[5],> 195 µM (not active)
O=C(Nc1ccccc1)c1ccc2c(c1)CCN2S(=O)(=O)c1ccccc1,CC50,[6],16 µM (active)
CN(C(=O)CN1C(=O)S/C(=C\c2ccccc2)C1=O)C1CCS(=O)(=O)C1 (stereo not given),EC50,[5],> 195 µM (not active)
Cc1cc(/C=C2\SC(=S)N(Cc3ccco3)C2=O)c(C)n1-c1ccccc1,EC50,[5],1.57 µM (active)
same,AC50,[3],2.2 µM (active)
O=C(CSC(=S)N1CCCCC1)Nc1ncc2c(n1)CCCC2=O,EC50,[5],> 195 µM (not active)
CC(NNc1ccccc1)=C1C(=O)N(C)C(=O)N(C)C1=O,AC50,[3],1.81 µM (active)
O=C1c2ccccc2C(Nc2ccc3c(c2)OCCO3)N1c1ccc(Cl)cn1 (stereo not given),EC50,[5],> 195 µM (not active)
O=C(NNc1ccccc1)C(=O)N1CCCCC1,AC50,[3],1.03 µM (active)
O=S(=O)(NCCSCc1c(Cl)cccc1Cl)c1ccc2c(c1)OCCO2,EC50,Streptococcus,24.5 µM (active)
same,EC50,[1],11.6 µM (active)
same,EC50,Streptokinase A,> 150 µM (not active)
Cc1ccc(NC(=S)Nc2cccc3ccccc23)cc1,EC50,[5],> 195 µM (not active)
CCOC(=O)Cn1c(=O)oc2cc(S(=O)(=O)NCCC(C)C)ccc21,EC50,[5],> 195 µM (not active)
COc1cccc(C(=O)Nc2ccc3c(C)cc(=O)oc3c2)c1,EC50,[7],> 260 µM (inactive)
CCN(c1ccc(NC(=O)CCc2nc(O)c3c4c(sc3n2)CCCC4)cc1)C(C)C,AC50,[3],4.71 µM (active)
CCCC/C(C)=C/[C@@H](NP(=O)(c1ccccc1)c1ccccc1)c1ccccc1,AC50,[3],6.1 µM (active)
COc1ccccc1-c1cc(=O)c2c(O)ccc([N+](=O)[O-])c2o1,EC50,Streptococcus,10.4 µM (active)
same,EC50,[1],1.4 µM (active)
same,EC50,Streptokinase A,> 150 µM (not active)
CC(C)Cc1nnc(NC(=O)CCC(=O)N2CCN(c3ccccc3)CC2)s1,EC50,Streptococcus,> 150 µM (not active)
same,EC50,[1],> 150 µM (not active)
same,EC50,Streptokinase A,> 150 µM (not active)
CCCCCCSc1cccc(-c2nc3cc(C)ccn3c2NC2CCCCC2)c1,AC50,[3],4.23 µM (active)
CC1CCCN(C(=O)c2ccccc2OC2CCN(S(C)(=O)=O)CC2)C1 (stereo not given),EC50,[7],> 260 µM (inactive)
COc1cccc(-c2c(C(=O)N/N=C(\C)c3ccc(Cl)s3)nnn2-c2nonc2N)c1,EC50,[7],51.8 µM (active)
O=c1c(/C=N\NS(=O)(=O)c2ccccc2)coc2ccc(Cl)cc12,EC50,[5],44.5 µM (active)
CCOC(=O)c1cc2c(=O)n3ccccc3nc2n(CCOC)/c1=N/C(=O)c1c(-c2c(F)cccc2Cl)noc1C,CC50,[6],5.3 µM (active)
COc1cc(/C=N/N2CCN(Cc3ccccc3)CC2)cc(OC)c1OC(C)=O,EC50,[5],> 195 µM (not active)
COc1ccc(S(=O)(=O)N/N=C(/C)c2ccncc2)cc1,EC50,Streptococcus,> 150 µM (not active)
same,EC50,[1],> 150 µM (not active)
same,EC50,Streptokinase A,> 150 µM (not active)
CCCCC/C=C\C/C=C\C/C=C\C/C=C\CCCC(=O)Nc1ccc(O)cc1,EC50,Streptococcus,3.32 µM (active)
same,EC50,[1],0.827 µM (active)
same,EC50,Streptokinase A,> 150 µM (inconclusive)
same,AC50,Cytochrome P450 1A2,20 µM (inconclusive)
NS(=O)(=O)c1cc2c(cc1Cl)NCNS2(=O)=O [HYDROCHLOROTHIAZIDE],EC50,[5],> 195 µM (not active)
